Measurements as given in ChEMBL document CHEMBL3885881, “DrugMatrix”.

Species: Rattus norvegicus
Assay: DrugMatrix - Regimen: Daily Repeat
Format: toxicity, organism-based, Sprague-Dawley
Parameters: regimen Daily Repeat, gender Male, age 6-8 weeks
Details: in vivo, po, route oral GAVAGE, vehicle 100 % SALINE; for ABSOLUTE BASOPHIL / ABSOLUTE EOSINOPHIL / ABSOLUTE LYMPHOCYTE / ABSOLUTE MONOCYTE / ABSOLUTE SEGMENTED NEUTROPHIL / BASOPHIL / EOSINOPHIL / ERYTHROCYTE COUNT / HEMATOCRIT / HEMOGLOBIN / LEUKOCYTE COUNT / LYMPHOCYTE / MEAN CORPUSCULAR HEMOGLOBIN / MEAN CORPUSCULAR HEMOGLOBIN CONCENTRATION / MONOCYTE / NEUTROPHIL / NUCLEATED RED BLOOD CELLS / PLATELET COUNT: tissue Blood; for ALANINE AMINOTRANSFERASE / ALBUMIN / ALKALINE PHOSPHATASE / ASPARTATE AMINOTRANSFERASE / BLOOD UREA NITROGEN / CARBON DIOXIDE / CHOLESTEROL / CREATINE PHOSPHOKINASE / CREATININE / GLUCOSE / LACTATE DEHYDROGENASE / LIPASE / POTASSIUM / SODIUM / TOTAL BILIRUBIN / TOTAL PROTEIN / URIC ACID: tissue Plasma
[1] = 0 mg/kg, 72 h, dose level Control, time 3 day
[2] = 0 mg/kg, 120 h, dose level Control, time 5 day
[3] = 330 mg/kg, 72 h, dose level Low, time 3 day

Nc1nc2c(ncn2COCCO)c(=O)[nH]1 [ACYCLOVIR]
ABSOLUTE BASOPHIL [1]: 0 CELLS/uL
ABSOLUTE EOSINOPHIL [1]: 37 CELLS/uL
ABSOLUTE LYMPHOCYTE [1]: 12359.33 CELLS/uL
ABSOLUTE MONOCYTE [1]: 122.67 CELLS/uL
ABSOLUTE SEGMENTED NEUTROPHIL [1]: 847.67 CELLS/uL
BASOPHIL [1]: 0%
EOSINOPHIL [1]: 0.33%
ERYTHROCYTE COUNT [1]: 5.75 x10E6/uL
HEMATOCRIT [1]: 36.08%
HEMOGLOBIN [1]: 14.07 G/DL
LEUKOCYTE COUNT [1]: 13.37 x10E3/uL
LYMPHOCYTE [1]: 92.5%
MEAN CORPUSCULAR HEMOGLOBIN [1]: 24.47 pg
MEAN CORPUSCULAR HEMOGLOBIN CONCENTRATION [1]: 38.98 G/DL
MONOCYTE [1]: 1%
NEUTROPHIL [1]: 6.17%
NUCLEATED RED BLOOD CELLS [1]: 0.17 /100WBC
PLATELET COUNT [1]: 1202.17 x10E3/uL
ALANINE AMINOTRANSFERASE [1]: 50.67 u/L
ALBUMIN [1]: 4.13 G/DL
ALKALINE PHOSPHATASE [1]: 356.33 u/L
ASPARTATE AMINOTRANSFERASE [1]: 78.17 u/L
BLOOD UREA NITROGEN [1]: 14.17 mg/dL
CARBON DIOXIDE [1]: 31.33 mmol/L
CHOLESTEROL [1]: 76.5 mg/dL
CREATINE PHOSPHOKINASE [1]: 248.33 u/L
CREATININE [1]: 0.2 mg/dL
GLUCOSE [1]: 144 mg/dL
LACTATE DEHYDROGENASE [1]: 107 u/L
LIPASE [1]: 9.83 u/L
POTASSIUM [1]: 6.75 MEQ/L
SODIUM [1]: 142 MEQ/L
TOTAL BILIRUBIN [1]: 0.18 mg/dL
TOTAL PROTEIN [1]: 5.98 G/DL
URIC ACID [1]: 1.42 mg/dL
ABSOLUTE BASOPHIL [2]: 0 CELLS/uL
ABSOLUTE EOSINOPHIL [2]: 0 CELLS/uL
ABSOLUTE LYMPHOCYTE [2]: 8681.17 CELLS/uL
ABSOLUTE MONOCYTE [2]: 79.83 CELLS/uL
ABSOLUTE SEGMENTED NEUTROPHIL [2]: 689 CELLS/uL
BASOPHIL [2]: 0%
EOSINOPHIL [2]: 0%
ERYTHROCYTE COUNT [2]: 5.49 x10E6/uL
HEMATOCRIT [2]: 33.55%
HEMOGLOBIN [2]: 13.1 G/DL
LEUKOCYTE COUNT [2]: 9.45 x10E3/uL
LYMPHOCYTE [2]: 92.33%
MEAN CORPUSCULAR HEMOGLOBIN [2]: 23.92 pg
MEAN CORPUSCULAR HEMOGLOBIN CONCENTRATION [2]: 39.07 G/DL
MONOCYTE [2]: 0.67%
NEUTROPHIL [2]: 7%
NUCLEATED RED BLOOD CELLS [2]: 0.17 /100WBC
PLATELET COUNT [2]: 1001.17 x10E3/uL
ALANINE AMINOTRANSFERASE [2]: 49.33 u/L
ALBUMIN [2]: 4.07 G/DL
ALKALINE PHOSPHATASE [2]: 300.33 u/L
ASPARTATE AMINOTRANSFERASE [2]: 83.5 u/L
BLOOD UREA NITROGEN [2]: 16 mg/dL
CARBON DIOXIDE [2]: 29.67 mmol/L
CHOLESTEROL [2]: 74.33 mg/dL
CREATINE PHOSPHOKINASE [2]: 489.67 u/L
CREATININE [2]: 0.35 mg/dL
GLUCOSE [2]: 151 mg/dL
LACTATE DEHYDROGENASE [2]: 133.67 u/L
LIPASE [2]: 11.17 u/L
POTASSIUM [2]: 5.5 MEQ/L
SODIUM [2]: 145.7 MEQ/L
TOTAL BILIRUBIN [2]: 0.2 mg/dL
TOTAL PROTEIN [2]: 6.05 G/DL
URIC ACID [2]: 0.68 mg/dL
ABSOLUTE BASOPHIL [3]: 0 CELLS/uL
ABSOLUTE EOSINOPHIL [3]: 0 CELLS/uL
ABSOLUTE LYMPHOCYTE [3]: 14421.67 CELLS/uL
ABSOLUTE MONOCYTE [3]: 118.67 CELLS/uL
ABSOLUTE SEGMENTED NEUTROPHIL [3]: 559.67 CELLS/uL
BASOPHIL [3]: 0%
EOSINOPHIL [3]: 0%
ERYTHROCYTE COUNT [3]: 5.8 x10E6/uL
HEMATOCRIT [3]: 35.43%
HEMOGLOBIN [3]: 13.97 G/DL
LEUKOCYTE COUNT [3]: 15.1 x10E3/uL
LYMPHOCYTE [3]: 95%
MEAN CORPUSCULAR HEMOGLOBIN [3]: 24.1 pg
MEAN CORPUSCULAR HEMOGLOBIN CONCENTRATION [3]: 39.4 G/DL
MONOCYTE [3]: 0.67%
NEUTROPHIL [3]: 4.33%
NUCLEATED RED BLOOD CELLS [3]: 0 /100WBC
PLATELET COUNT [3]: 1133.33 x10E3/uL
ALANINE AMINOTRANSFERASE [3]: 50 u/L
ALBUMIN [3]: 4.3 G/DL
ALKALINE PHOSPHATASE [3]: 334 u/L
ASPARTATE AMINOTRANSFERASE [3]: 88.67 u/L
BLOOD UREA NITROGEN [3]: 17.33 mg/dL
CARBON DIOXIDE [3]: 25.67 mmol/L
CHOLESTEROL [3]: 70 mg/dL
CREATINE PHOSPHOKINASE [3]: 328.33 u/L
CREATININE [3]: 0.34 mg/dL
GLUCOSE [3]: 183 mg/dL
LACTATE DEHYDROGENASE [3]: 177.67 u/L
LIPASE [3]: 10.33 u/L
POTASSIUM [3]: 5.7 MEQ/L
SODIUM [3]: 144.1 MEQ/L
TOTAL BILIRUBIN [3]: 0.13 mg/dL
TOTAL PROTEIN [3]: 6.17 G/DL
URIC ACID [3]: 2.2 mg/dL
